The cell lines below were run with COC1=C(C=C(C=C1)C2=CC3=NC=CN3C(=N2)NC4=C(C=CC=N4)C(=O)N)OC [BAY61-3606] + N=C(N)NC(=N)NCCc1ccccc1 [Phenformin] (partner 250 µM) (assay: relative viability (nuclei count vs DMSO), 5 days (fraction); higher = more cells survive). Details: first compound 0.02 µM.
Summary of the method: (§1)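 Lung cancer cell lines were seeded in 1536-well plates and dosed by pin tool the next day, with either a single drug or a fixed anchor-drug dose combined with five library-drug doses (not always all listed) spaced in √10 steps. Five days later, one step fixed the cells and stained their nuclei (final 0.05% Triton X-100, 1% formaldehyde, 1 ug/ml Hoechst), and nuclei were counted on 4× images. Relative viability is the nuclei count in treated wells divided by the count in vehicle wells, and each value is the median of duplicate plates.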

Row | Cell Line | relative viability
1 | LCLC-103H | 0.342
2 | NCI-H1650 | 0.506
3 | NCI-H2170 | 0.399
4 | NCI-H1993 | 0.547
5 | NCI-H23 | 0.85
6 | ABC-1 | 0.254
7 | SK-MES-1 | 0.729
8 | PC-14 | 0.752
9 | HCC-366 | 0.642

Same assay, conditions: first compound 0.06325 µM

Row | Cell Line | relative viability
10 | LCLC-103H | 0.328
11 | NCI-H1650 | 0.351
12 | NCI-H2170 | 0.356
13 | NCI-H1993 | 0.502
14 | NCI-H23 | 0.796
15 | ABC-1 | 0.269
16 | SK-MES-1 | 0.586
17 | PC-14 | 0.357
18 | HCC-366 | 0.512

Same assay, conditions: first compound 0.2 µM

Row | Cell Line | relative viability
19 | LCLC-103H | 0.297
20 | NCI-H1650 | 0.48
21 | NCI-H2170 | 0.434
22 | NCI-H1993 | 0.545
23 | NCI-H23 | 0.764
24 | ABC-1 | 0.219
25 | SK-MES-1 | 0.633
26 | PC-14 | 0.579
27 | HCC-366 | 0.613

Same assay, conditions: first compound 0.6325 µM

Row | Cell Line | relative viability
28 | LCLC-103H | 0.328
29 | NCI-H1650 | 0.378
30 | NCI-H2170 | 0.401
31 | NCI-H1993 | 0.493
32 | NCI-H23 | 0.78
33 | ABC-1 | 0.227
34 | SK-MES-1 | 0.685
35 | PC-14 | 0.532
36 | HCC-366 | 0.565

Same assay, conditions: first compound 2 µM

Row | Cell Line | relative viability
37 | LCLC-103H | 0.352
38 | NCI-H1650 | 0.224
39 | NCI-H2170 | 0.385
40 | NCI-H1993 | 0.543
41 | NCI-H23 | 0.714
42 | ABC-1 | 0.284
43 | SK-MES-1 | 0.57
44 | PC-14 | 0.536
45 | HCC-366 | 0.504

Each cell line was assayed with COC1=C(C=C(C=C1)C2=CC3=NC=CN3C(=N2)NC4=C(C=CC=N4)C(=O)N)OC [BAY61-3606] + COc1cccc2cc(-c3nc([C@H]4CC[C@H](C(=O)O)CC4)n4ncnc(N)c34)[nH]c12 [OSI-027] (partner 0.5 µM) in the same assay as above. Details: first compound 0.02 µM.
Summary of the method: as §1

Row | Cell Line | relative viability
46 | LCLC-103H | 0.472
47 | NCI-H1650 | 0.702
48 | NCI-H2170 | 0.693
49 | NCI-H1993 | 0.586
50 | NCI-H23 | 0.629
51 | ABC-1 | 0.51
52 | SK-MES-1 | 0.604
53 | PC-14 | 0.786
54 | HCC-366 | 1.07

Same assay, conditions: first compound 0.06325 µM

Row | Cell Line | relative viability
55 | LCLC-103H | 0.434
56 | NCI-H1650 | 0.442
57 | NCI-H2170 | 0.65
58 | NCI-H1993 | 0.583
59 | NCI-H23 | 0.72
60 | ABC-1 | 0.545
61 | SK-MES-1 | 0.674
62 | PC-14 | 0.787
63 | HCC-366 | 0.875

Same assay, conditions: first compound 0.2 µM

Row | Cell Line | relative viability
64 | LCLC-103H | 0.478
65 | NCI-H1650 | 0.666
66 | NCI-H2170 | 0.8
67 | NCI-H1993 | 0.505
68 | NCI-H23 | 0.442
69 | ABC-1 | 0.521
70 | SK-MES-1 | 0.56
71 | PC-14 | 0.746
72 | HCC-366 | 0.81

Same assay, conditions: first compound 0.6325 µM

Row | Cell Line | relative viability
73 | LCLC-103H | 0.425
74 | NCI-H1650 | 0.686
75 | NCI-H2170 | 0.776
76 | NCI-H1993 | 0.564
77 | NCI-H23 | 0.561
78 | ABC-1 | 0.647
79 | SK-MES-1 | 0.706
80 | PC-14 | 1.24
81 | HCC-366 | 0.862

Same assay, conditions: first compound 2 µM

Row | Cell Line | relative viability
82 | LCLC-103H | 0.439
83 | NCI-H1650 | 0.396
84 | NCI-H2170 | 0.597
85 | NCI-H1993 | 0.587
86 | NCI-H23 | 0.512
87 | ABC-1 | 0.452
88 | SK-MES-1 | 0.405
89 | PC-14 | 0.522
90 | HCC-366 | 0.715

These cell lines were tested with COc1cccc2c1C(=O)c1c(O)c3c(c(O)c1C2=O)C[C@@](O)(C(=O)CO)C[C@@H]3O[C@H]1C[C@H](N)[C@H](O)[C@H](C)O1 [Doxorubicin] + N=C(N)NC(=N)NCCc1ccccc1 [Phenformin] (partner 250 µM) in the same assay as above. Details: first compound 0.001 µM.
Summary of the method: as §1

Row | Cell Line | relative viability
91 | LCLC-103H | 0.341
92 | NCI-H1650 | 0.365
93 | NCI-H2170 | 0.379
94 | NCI-H1993 | 0.508
95 | ABC-1 | 0.223
96 | SK-MES-1 | 0.655
97 | PC-14 | 0.421

Same assay, conditions: first compound 0.003162 µM

Row | Cell Line | relative viability
98 | LCLC-103H | 0.37
99 | NCI-H1650 | 0.35
100 | NCI-H2170 | 0.388
101 | NCI-H1993 | 0.494
102 | NCI-H23 | 0.84
103 | ABC-1 | 0.161
104 | SK-MES-1 | 0.648
105 | PC-14 | 0.629
106 | HCC-366 | 0.614

Same assay, conditions: first compound 0.01 µM

Row | Cell Line | relative viability
107 | LCLC-103H | 0.345
108 | NCI-H1650 | 0.222
109 | NCI-H2170 | 0.411
110 | NCI-H1993 | 0.455
111 | NCI-H23 | 0.806
112 | ABC-1 | 0.206
113 | SK-MES-1 | 0.612
114 | PC-14 | 0.709
115 | HCC-366 | 0.601

Same assay, conditions: first compound 0.03162 µM

Row | Cell Line | relative viability
116 | LCLC-103H | 0.293
117 | NCI-H1650 | 0.126
118 | NCI-H2170 | 0.485
119 | NCI-H1993 | 0.491
120 | NCI-H23 | 0.58
121 | ABC-1 | 0.188
122 | SK-MES-1 | 0.285
123 | PC-14 | 0.284
124 | HCC-366 | 0.48

Same assay, conditions: first compound 0.1 µM

Row | Cell Line | relative viability
125 | LCLC-103H | 0.354
126 | NCI-H1650 | 0.11
127 | NCI-H2170 | 0.432
128 | NCI-H1993 | 0.453
129 | NCI-H23 | 0.486
130 | ABC-1 | 0.156
131 | SK-MES-1 | 0.222
132 | PC-14 | 0.213
133 | HCC-366 | 0.395

What follows are cell lines tested with COC1=C(C=C(C=C1)C2=CC3=NC=CN3C(=N2)NC4=C(C=CC=N4)C(=O)N)OC [BAY61-3606] + CC(=O)c1c(C)c2cnc(Nc3ccc(N4CCNCC4)cn3)nc2n(C2CCCC2)c1=O [Palbociclib] (partner 0.5 µM) in the same assay as above. Details: first compound 0.02 µM.
Summary of the method: as §1

Row | Cell Line | relative viability
134 | LCLC-103H | 0.473
135 | NCI-H1650 | 0.316
136 | NCI-H2170 | 0.338
137 | NCI-H1993 | 0.581
138 | NCI-H23 | 0.646
139 | ABC-1 | 0.39
140 | SK-MES-1 | 0.312
141 | PC-14 | 0.455
142 | HCC-366 | 0.44

Same assay, conditions: first compound 0.06325 µM

Row | Cell Line | relative viability
143 | LCLC-103H | 0.508
144 | NCI-H1650 | 0.291
145 | NCI-H2170 | 0.404
146 | NCI-H1993 | 0.626
147 | NCI-H23 | 0.484
148 | ABC-1 | 0.576
149 | SK-MES-1 | 0.311
150 | PC-14 | 0.546
151 | HCC-366 | 0.46

Same assay, conditions: first compound 0.2 µM

Row | Cell Line | relative viability
152 | LCLC-103H | 0.449
153 | NCI-H1650 | 0.37
154 | NCI-H2170 | 0.425
155 | NCI-H1993 | 0.48
156 | NCI-H23 | 0.549
157 | ABC-1 | 0.705
158 | SK-MES-1 | 0.385
159 | PC-14 | 0.468
160 | HCC-366 | 0.324

Same assay, conditions: first compound 0.6325 µM

Row | Cell Line | relative viability
161 | LCLC-103H | 0.462
162 | NCI-H1650 | 0.413
163 | NCI-H2170 | 0.412
164 | NCI-H1993 | 0.688
165 | NCI-H23 | 0.509
166 | ABC-1 | 0.796
167 | SK-MES-1 | 0.393
168 | PC-14 | 0.514
169 | HCC-366 | 0.326

Same assay, conditions: first compound 2 µM

Row | Cell Line | relative viability
170 | LCLC-103H | 0.481
171 | NCI-H1650 | 0.298
172 | NCI-H2170 | 0.306
173 | NCI-H1993 | 0.524
174 | NCI-H23 | 0.371
175 | ABC-1 | 0.716
176 | SK-MES-1 | 0.313
177 | PC-14 | 0.453
178 | HCC-366 | 0.255

— the supplement of paper PMC10307832
